Drawing on ChEMBL document CHEMBL3588798, “Non-peptide ligand binding to the formyl peptide receptor FPR2--A comparison to peptide ligand binding modes” (Bioorg Med Chem, 2015), this text covers IC50 and EC50 for 26 compounds.

For one assay, the target named is T1, N-formyl peptide receptor 2 (Homo sapiens, UniProt P25090).
T1 sequence (P25090 whole entry): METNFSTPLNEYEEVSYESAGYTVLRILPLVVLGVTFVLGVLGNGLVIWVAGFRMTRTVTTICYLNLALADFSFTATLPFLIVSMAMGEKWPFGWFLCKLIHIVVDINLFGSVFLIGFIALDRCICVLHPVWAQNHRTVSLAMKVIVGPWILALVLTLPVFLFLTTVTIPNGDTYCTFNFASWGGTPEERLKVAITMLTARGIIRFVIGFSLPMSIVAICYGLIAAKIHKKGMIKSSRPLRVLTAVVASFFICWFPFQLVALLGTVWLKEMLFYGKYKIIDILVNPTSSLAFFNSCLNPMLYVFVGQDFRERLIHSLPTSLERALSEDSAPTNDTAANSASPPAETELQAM
Kind of assay: Allosteric antagonist activity against FPR2 (unknown origin).
For the compound `CCCCCCCCCCCCCCCC(=O)N[C@@H](CCCCN)C(=O)N(CCC(=O)N[C@@H](CCCCN)C(=O)N(CCC(=O)N[C@@H](CCCCN)C(=O)N(CCC(=O)N[C@@H](CCCCN)C(=O)N(CCC(=O)N[C@@H](CCCCN)C(=O)N(CCC(=O)N[C@@H](CCCCN)C(=O)N(CCC(N)=O)[C@@H](C)c1ccccc1)[C@@H](C)c1ccccc1)[C@@H](C)c1ccccc1)[C@@H](C)c1ccccc1)[C@@H](C)c1ccccc1)[C@@H](C)c1ccccc1`, the IC50 (in general, the point on the concentration scale where inhibition reaches its midpoint) was found to be 50 nM.

For a further assay, the target named is T1, N-formyl peptide receptor 2. Kind of assay: Agonist activity against human FPR2 expressed in human HL60 cells by Fluo-4AM dye based intracellular Ca2+ mobilization assay. In kind it is functional, cell-based, HL-60.
`COc1ccc(CCNC(=O)Nc2ccc(Cl)cc2)cc1`: the EC50 – broadly, the midpoint of the concentration-response curve – turned out to be 400 nM. In other words, the sub-micromolar range.
Still for that read-out and setting: in the case of `COc1ccc(CCNC(=O)Nc2ccc(Br)cc2)cc1` it was 100 nM; in that of `CCOc1ccc2[nH]c(SCC(=O)Nc3ccccc3SC)nc2c1`, 8000 nM.
Same read-out and setting: in the case of `O=C(Nc1ccc(Cl)cc1)N[C@@H](Cc1ccccc1)C(=O)N1CCCCC1` it was 50 nM; in that of `COc1ccc2[nH]c(SCC(=O)Nc3ccccc3Cl)nc2c1`, 10000 nM; in that of `COC(=O)Nc1cccc(NC(=O)CSc2nc3cc(OC)ccc3[nH]2)c1`, 7300 nM.
The same measure, in the same setting: in the case of `COc1ccc(CCNC(=O)Nc2ccc(F)cc2)cc1` it was 900 nM; in that of `COc1ccc2[nH]c(SCC(=O)Nc3ccc(C(C)=O)cc3)nc2c1`, 6000 nM.
`CSc1ccc(NC(=O)N[C@@H](Cc2ccccc2)C(=O)N2CCCCC2)cc1`: the response was half-maximal at 300 nM (EC50).
The same measure, in the same setting: in the case of `CCOC(=O)C1CCN(C(=O)[C@H](Cc2c[nH]c3ccccc23)NC(=O)Nc2ccc(Br)cc2)CC1` it was 130 nM.
On the same count and under the same terms, the value for `O=C(Nc1ccc(Br)cc1)N[C@@H](Cc1ccccc1)C(=O)N1CCc2ccccc21` was 250 nM; that for `CCc1ccc(NC(=O)CSc2nc3cc(OC)ccc3[nH]2)cc1` was 3200 nM.
In turn, `O=C(Nc1ccc(Br)cc1)N[C@@H](Cc1ccccc1)C(=O)N1CCCC1` gave an EC50 of 140 nM.
On the same count and under the same terms, in the case of `COc1ccc(CCNC(=O)Nc2ccccc2)cc1` it was 3000 nM; in that of `O=C(Nc1ccc(Br)cc1)N[C@@H](Cc1ccccc1)C(=O)N1CCCCC1`, 40 nM; in that of `O=C(Nc1ccc(Br)cc1)N[C@@H](Cc1ccccc1)C(=O)NN1CCCCNC1=O`, 4 nM.
On the same count and under the same terms, in the case of `COc1ccc2[nH]c(SCC(=O)Nc3ccccc3Br)nc2c1` it was 4030 nM; in that of `CCOC(=O)C1CCCN(C(=O)[C@H](Cc2ccccc2)NC(=O)Nc2ccc(Br)cc2)C1` (stereo partly drawn), 7 nM.
Same read-out and setting: the value for `COc1ccc2[nH]c(SCC(=O)Nc3ccc(OC)c(OC)c3)nc2c1` was 4700 nM; that for `CCOC(=O)C1CCN(C(=O)[C@H](Cc2ccccc2)NC(=O)Nc2ccc(Br)cc2)CC1` was 160 nM.

A further assay has the same target. Kind of assay: Agonist activity at human FPR2 expressed in rat RBL-2H3 cells by intracellular Ca2+ mobilization assay. It is filed as functional, cell-based. (A change in cytosolic calcium serves as a functional read-out for many receptors and channels.)
`CCCCOc1ccc(C(=O)NN2Cc3ccccc3NC2c2ccc(OC)cc2)cc1` (stereo not drawn) showed a concentration giving a half-maximal response (EC50) of 470 nM. This lies in the sub-micromolar range.
Still for that read-out and setting: the value for `CCCCOc1ccc(C(=O)NN2Cc3ccccc3NC2c2ccc(C)cc2)cc1` (stereo not drawn) was 1480 nM.

For a further assay the target is unchanged. Nature of the assay: Antagonist activity against human FPR2 expressed in rat RBL-2H3 cells pre-treated for 15 mins before addition of WKYMVm or C1 by intracellular Ca2+ mobilization assay. In kind it is functional, cell-based.
Turning to `CCCCOc1ccc(C(=O)NN2Cc3ccccc3NC2c2ccc(OC)cc2)cc1` (stereo not drawn), the IC50 was found to be 90 nM.
For the compound `CCCCOc1ccc(C(=O)NN2Cc3ccccc3NC2c2ccc(C)cc2)cc1` (stereo not drawn), the IC50 came to 170 nM.
On the same count and under the same terms, the value for `CCCCOc1ccc(C(=O)NN2Cc3ccccc3NC2c2ccc(O)cc2)cc1` (stereo not drawn) was 6650 nM.

The target is the same in another assay. Kind of assay: Agonist activity at FPR2 (unknown origin) by Fluo4 florescence based intracellular Ca2+ mobilization assay. In kind it is functional, cell-based.
`CCC[C@H]1CNC(=O)C(=O)N1C[C@@H]1CCCN1C[C@@H](Cc1ccc2ccccc2c1)N1C[C@@H](Cc2ccc(O)cc2)N(CC2CCCCC2)C(=O)C1=O` returned an EC50 of 140 nM.

Another assay has the same target. Kind of assay: Antagonist activity against FPR2 (unknown origin) pre-treated for 5 mins before addition of Wpep by Fluo4 florescence based intracellular Ca2+ mobilization assay. It is filed as functional, cell-based.
In the case of `CC(C)[C@H]1CNC(=O)C(=O)N1C[C@@H]1CCCN1C[C@@H](Cc1ccc2ccccc2c1)N1C[C@@H](Cc2ccc(O)cc2)N(CC2CCCCC2)C(=O)C1=O`, the half-maximal inhibitory concentration (IC50) came to 80 nM.
